According to patent US20240400518A1, “SOS1 INHIBITOR AND USE THEREOF” (KANAPH THERAPEUTICS INC., priority 2021, published 2024):

Key:
KRAS^G12C::SOS1 = biological target: T1, KRAS^G12C::SOS1 (Homo sapiens, UniProt Q07889); test: KRAS G12C::SOS1 protein-protein interaction (PPI) inhibition assay (HTRF binding kit); conditions: max inhibitor concentration 3 μM, three replicates, IC50 class
T1 construct: purchased CISBIO, FRANCE 64KRASG12PEH
T1 sequence (Q07889 1-1333): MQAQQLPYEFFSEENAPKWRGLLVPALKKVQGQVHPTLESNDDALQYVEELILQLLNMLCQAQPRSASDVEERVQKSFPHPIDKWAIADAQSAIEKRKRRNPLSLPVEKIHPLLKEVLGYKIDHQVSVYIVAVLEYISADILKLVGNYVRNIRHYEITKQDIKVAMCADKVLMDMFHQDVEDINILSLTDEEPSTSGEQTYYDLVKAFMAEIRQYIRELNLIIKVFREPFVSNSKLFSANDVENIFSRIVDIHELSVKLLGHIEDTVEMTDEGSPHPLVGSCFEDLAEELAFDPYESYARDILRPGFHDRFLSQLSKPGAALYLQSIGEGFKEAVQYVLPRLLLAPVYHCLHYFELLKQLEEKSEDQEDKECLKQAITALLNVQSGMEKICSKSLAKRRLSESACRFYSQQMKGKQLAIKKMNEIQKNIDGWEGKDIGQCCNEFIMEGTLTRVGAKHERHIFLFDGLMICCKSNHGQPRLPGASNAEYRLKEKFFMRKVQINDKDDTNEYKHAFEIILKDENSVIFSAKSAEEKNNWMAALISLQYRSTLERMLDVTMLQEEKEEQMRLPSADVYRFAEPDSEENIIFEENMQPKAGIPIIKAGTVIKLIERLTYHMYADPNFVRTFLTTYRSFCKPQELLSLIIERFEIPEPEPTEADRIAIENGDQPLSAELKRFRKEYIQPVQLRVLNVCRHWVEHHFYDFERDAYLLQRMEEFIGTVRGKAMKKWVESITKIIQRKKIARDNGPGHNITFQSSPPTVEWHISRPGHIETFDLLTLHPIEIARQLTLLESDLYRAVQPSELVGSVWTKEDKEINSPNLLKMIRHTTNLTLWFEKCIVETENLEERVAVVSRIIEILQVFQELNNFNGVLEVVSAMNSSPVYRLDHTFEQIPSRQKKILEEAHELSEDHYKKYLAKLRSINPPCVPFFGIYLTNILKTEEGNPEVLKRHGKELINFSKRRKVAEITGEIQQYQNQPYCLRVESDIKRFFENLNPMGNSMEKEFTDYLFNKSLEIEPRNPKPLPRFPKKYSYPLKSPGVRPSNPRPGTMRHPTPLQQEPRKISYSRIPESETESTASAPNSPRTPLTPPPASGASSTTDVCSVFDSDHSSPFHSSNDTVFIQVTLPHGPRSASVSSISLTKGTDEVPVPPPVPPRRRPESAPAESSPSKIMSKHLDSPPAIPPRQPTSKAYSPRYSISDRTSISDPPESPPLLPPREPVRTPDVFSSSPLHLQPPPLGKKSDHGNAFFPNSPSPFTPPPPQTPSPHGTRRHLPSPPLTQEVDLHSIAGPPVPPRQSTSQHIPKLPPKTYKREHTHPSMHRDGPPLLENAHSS
Description: Protein-protein interaction between SOS1 and KRAS^G12C was detected using KRAS G12C/SOS1 binding kit from CISBIO (64KRASG12PEH, CISBIO, FRANCE) according to the manufacturer's assay method. Briefly, the maximum concentration of an inhibitor sample was set to be 3 μM, and the inhibitor sample was diluted 7 times by 1/3, and samples having a total of 8 concentrations were prepared. In HTRF (Homogeneous Time-Resolved Fluorescence) exclusive 96-well low-volume white plate (66PL96005, CISBIO, FRANCE), 2 μL of an inhibitor sample prepared for each concentration, 5 μL of a mixed solution of Tag1 labeled KRAS^G12C protein and GTP diluted with the dilution solution provided by the manufacturer, and 5 μL of Tag2 labeled SOS1 protein were mixed, and added with 8 μL of a diluted solution where anti-Tag1 KRAS^G12CXL665 (HTRF acceptor) labeled antibody and anti-Tag2 SOS1 Terbium cryptate (HTRF donor) labeled antibody were mixed in an equal ratio and cultured at room temperature for 2 hours.

SOS1 = biological target: T2, SOS1 (Homo sapiens, UniProt Q07889); test: SOS-catalyzed nucleotide exchange assay (HTRF, SOS1-mediated GTP loading of KRAS G12D); format: biochemical; conditions: GST-KRAS G12D, HIS-SOS1cat, IC50 class
T2 construct: adding equal amounts of HIS—SOS1cat (160 nM; Cytoskeleton, US); His (N); purchased Cytoskeleton, US
T2 sequence (Q07889 564-1049 limits assumed): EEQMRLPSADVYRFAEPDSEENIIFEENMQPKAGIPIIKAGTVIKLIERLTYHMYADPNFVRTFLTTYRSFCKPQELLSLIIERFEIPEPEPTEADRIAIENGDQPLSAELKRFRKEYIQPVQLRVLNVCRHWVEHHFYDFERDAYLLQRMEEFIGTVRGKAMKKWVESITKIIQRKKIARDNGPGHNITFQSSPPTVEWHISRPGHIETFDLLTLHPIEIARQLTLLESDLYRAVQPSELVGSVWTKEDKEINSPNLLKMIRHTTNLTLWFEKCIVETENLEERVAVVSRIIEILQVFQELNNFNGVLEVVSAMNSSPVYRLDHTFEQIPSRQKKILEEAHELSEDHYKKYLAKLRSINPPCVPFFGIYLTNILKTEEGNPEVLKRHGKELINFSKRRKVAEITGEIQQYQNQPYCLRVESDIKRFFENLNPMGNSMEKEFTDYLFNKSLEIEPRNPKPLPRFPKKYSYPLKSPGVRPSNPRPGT
Description: SOS1 activity was measured by SOS1-mediated GTP loading quantification of KRAS^G12D. GTP loaded KRAS^G12D was detected by HTRF (Homogeneous Time Resolved Fluorescence) using anti-GST terbium (Cisbio, France) as a donor and a fluorescence GTP analogue (EDA-GTP-DY-647P1, [DY-647P1 labeled 2′/3′-O-(2-aminoethyl-carbamoyl)guanosine-5′-triphosphate (Jena bioscience, Germany)]) as an acceptor.
Assay buffer was composed of 10 mM HEPES pH 7.4, 150 mM NaCl, 5 mM MgCl2, 1 mM DTT, 0.05% BSA Fraction V pH 7.0 (Sigma) and 0.0025% (v/v) Igepal (Sigma). KRAS^G12D working solution was prepared by adding equal amounts of GST-KRAS^G12D (100 nM) and anti-GST-terbium (2 nM; Cisbio, France) to the assay buffer and culturing on ice for 10 minutes. SOS1cat working solution was prepared by adding equal amounts of HIS—SOS1cat (160 nM; Cytoskeleton, US) and EDA-GTP-DY-647P1 (200 nM; Jena bioscience, Germany) to the assay buffer. Control solution was prepared by adding equal volumes of EDA-GTP-DY-647P1 and the assay buffer for normalization control to exclude GEF-independent GTP loading and background signals. In order to induce a reaction, 5 μL of the SOS1cat working solution or the control solution was injected into each well. 5 μL of a compound having various concentrations from 128 pM to 10 μM was added to wells containing the SOS1cat working solution and incubated at room temperature for 10 minutes to bind to SOS1.
10 μL of the KRAS^G12D solution was added to each well and incubated for 30 minutes at room temperature while shaking. HTRF was measured using a Thermo Varioskan (excitation 334 nm, emission 665 nm). The IC50 of each inhibitor was analyzed using Graphad Prism.

| Compound | IC50 (KRAS^G12C::SOS1) [nM] | IC50 (SOS1) [nM] |
| --- | --- | --- |
| C[C@@H](NC(=O)c1ccc(=O)n(-c2ccncc2F)n1)c1cc(N)cc(C(F)(F)F)c1 [Example 191] | < 1000 |  |
| [2H]C([2H])([2H])n1nncc1-c1cccc(-n2nc(C(=O)N[C@H](C)c3cccc(C(F)(F)CO)c3F)ccc2=O)c1 [Example 393, N-[(1R)-1-[3-(1,1-difluoro-2-hydroxy-ethyl)-2-fluoro-phenyl]ethyl]-6-oxo-1-[3-[3-(trideuteriomethyl)triazol-4-yl]phenyl]pyridazine-3-carboxamide] | < 1000 |  |
| C[C@@H](NC(=O)c1ccc(=O)n(-c2ccc(F)c(-c3cnnn3C)c2)n1)c1cccc(C(F)(F)CO)c1F [Example 390] | < 1000 |  |
| C[C@@H](NC(=O)c1ccc(=O)n(-c2cc(F)cc(-c3cnnn3C)c2)n1)c1cc(N)cc(C(F)(F)F)c1 [Example 391, N-[(1R)-1-[3-amino-5-(trifluoromethyl)phenyl]ethyl]-1-[3-fluoro-5-(3-methyltriazol-4-yl)phenyl]-6-oxo-pyridazine-3-carboxamide] | < 1000 |  |
| C[C@@H](NC(=O)c1ccc(=O)n(-c2cccc(-c3cnnn3C)c2)n1)c1cccc(C(F)(F)CO)c1F [Example 370, N-[(1R)-1-[3-(1,1-difluoro-2-hydroxy-ethyl)-2-fluoro-phenyl]ethyl]-1-[3-(3-methyltriazol-4-yl)phenyl]-6-oxo-pyridazine-3-carboxamide] | < 1000 |  |
| C[C@@H](NC(=O)c1ccc(=O)n(-c2cccc(C(C)(C)O)c2)n1)c1cc(N)cc(C(F)(F)F)c1 [Example 171] | < 1000 |  |
| C[C@@H](NC(=O)c1ccc(=O)n(-c2cc(-c3cnnn3C)ccc2F)n1)c1cc(N)cc(C(F)(F)F)c1 [Example 371, N-[(1R)-1-[3-amino-5-(trifluoromethyl)phenyl]ethyl]-1-[2-fluoro-5-(3-methyltriazol-4-yl)phenyl]-6-oxo-pyridazine-3-carboxamide] | < 1000 |  |
| C[C@@H](NC(=O)c1ccc(=O)n(-c2cccc(-c3ccnn3C)c2)c1)c1cccc(C(F)(F)CO)c1F [Example 78, N-[(1R)-1-[3-(1,1-difluoro-2-hydroxyethyl)-2-fluorophenyl]ethyl]-1-[3-(1-methyl-1H-pyrazol-5-yl)phenyl]-6-oxo-1,6-dihydropyridine-3-carboxamide] |  | < 1000 |
| Cc1cnnn1-c1cccc(-n2cc(C(=O)N[C@H](C)c3cc(N)cc(C(F)(F)F)c3)ccc2=O)c1 [Example 377, N-[(1R)-1-[3-amino-5-(trifluoromethyl)phenyl]ethyl]-1-[3-(5-methyltriazol-1-yl)phenyl]-6-oxo-pyridine-3-carboxamide] | < 1000 |  |
| Cc1c([C@@H](C)NC(=O)c2ccc(=O)n(-c3ccccc3F)n2)cc(N)cc1C(F)(F)F [Example 244, N-[(1R)-1-[5-amino-2-methyl-3-(trifluoromethyl)phenyl]ethyl]-1-(2-fluorophenyl)-6-oxo-pyridazine-3-carboxamide] | < 1000 |  |
| C[C@@H](NC(=O)c1ccc(=O)n(-c2cccc(-c3ccccc3)c2)n1)c1cc(N)cc(C(F)(F)F)c1 [Example 212] | 1000 to 10000 |  |
| C[C@@H](NC(=O)c1ccc(=O)n(-c2cccc(C(=O)O)c2)n1)c1cc(N)cc(C(F)(F)F)c1 [Example 249, 3-(3-{[(1R)-1-[3-amino-5-(trifluoromethyl)phenyl]ethyl]carbamoyl}-6-oxo-1,6-dihydropyridazin-1-yl)benzoic acid] | < 1000 |  |
| Cc1cnnn1-c1cccc(-n2nc(C(=O)N[C@H](C)c3cc(N)cc(C(F)(F)F)c3)ccc2=O)c1 [Example 378, N-[(1R)-1-[3-amino-5-(trifluoromethyl)phenyl]ethyl]-1-[3-(5-methyltriazol-1-yl)phenyl]-6-oxo-pyridazine-3-carboxamide] | < 1000 |  |
| C[C@@H](NC(=O)c1ccc(=O)n(-c2cccc(-c3cnoc3)c2)n1)c1cc(N)cc(C(F)(F)F)c1 [Example 322, N-[(1R)-1-[3-amino-5-(trifluoromethyl)phenyl]ethyl]-1-(3-isoxazol-4-ylphenyl)-6-oxo-pyridazine-3-carboxamide] | < 1000 |  |
| CNCc1ccc(Cl)cc1-c1ccc([C@@H](C)NC(=O)c2ccc(=O)n(-c3cccnc3)c2)s1 [Example 284] | < 1000 |  |
| C[C@@H](NC(=O)c1ccc(=O)n(-c2cncc(-c3cnnn3C)c2)n1)c1cc(N)cc(C(F)(F)F)c1 [Example 392, N-[(1R)-1-[3-amino-5-(trifluoromethyl)phenyl]ethyl]-1-[5-(3-methyltriazol-4-yl)-3-pyridyl]-6-oxo-pyridazine-3-carboxamide] | < 1000 |  |
| C[C@@H](NC(=O)c1ccc(=O)n(-c2ccccc2F)n1)c1ccc(Br)s1 [Example 265, N-[(1R)-1-(5-bromo-2-thienyl)ethyl]-1-(2-fluorophenyl)-6-oxo-pyridazine-3-carboxamide] | < 1000 |  |
| C[C@@H](NC(=O)c1ccc(=O)n(-c2ccc(F)c(-c3cnnn3C)c2)n1)c1cc(N)cc(C(F)(F)F)c1 [Example 389, N-[(1R)-1-[3-amino-5-(trifluoromethyl)phenyl]ethyl]-1-[4-fluoro-3-(3-methyltriazol-4-yl)phenyl]-6-oxo-pyridazine-3-carboxamide] | < 1000 |  |
